From patent US7053194B2, “Compositions and methods for p53-mediated repression of gene expression” (Fox Chase Cancer Center, priority 1999, dated 2006)
Square brackets hold non-standard residues; d marks the D form. Peptide text beside a SMILES is read from it. Nle = CCCC[C@H](N)C(=O)O

Assays:
MCF-7 cells [1] = test: Immunoprecipitation-western analysis of p53 and p53-mSin3a complexes; assay type: cell-based, human; conditions: MCF-7, 50 uM ALLN, 2 hours
Experimental: (§1) Sub-confluent cultures of MCF 7 and A2780 cells were treated with 100 nM trichostatin A (TSA, Sigma)for 2 hours, followed by incubation with 0.5 ug/ml adriamycin (doxorubicin, Sigma) for the indicated timepoints. Va15 cells grown at 39 degrees were treated with 100 nM TSA for two hours, followed by temperature shift to 32 degrees for 12 hours. p53 induction was monitored by western analysis of 100 ug protein as described (Murphy et al., Genes & Devel. 10:2971–2980, 1996), using 0.1ug/ml DO-1 (Ab-6, Calbiochem) or 421 (Ab-1, Calbiochem). MDM2 induction was monitored using the monoclonal antibody 2A10, kindly provided by Arnold Levine (Rockefeller University). For UV treatments, cells were irradiated with 4 J/m2 of UV-C with a Spectroline X series ultraviolet lamp, and output was monitored with a traceable UV light meter (Fisher Scientific). For ALLN treatment, MCF-7 cells were treated with 50 uM ALLN (calpain I inhibitor, Sigma) made in DMSO (dimethyl sulfoxide, Sigma) or with DMSO alone for 2 hours prior to harvesting.
Sub-confluent cultures of cells were harvested and lysed in NP-40 buffer supplemented with protease inhibitors (1 mM PMSF, 10 ug/ml pepstatin A, 10 ug/ml aprotinin, and 5ug/ml leupeptin). Protein concentrations were determined by the method of Bradford (BioRad). Equal ug amounts of protein (between 2.0 and 3.0 mg) were immunoprecipitated with 1 ug of each antibody, except for Va15 immunoprecipitations, which used 1000 ug protein, as described (Murphy et al., Genes & Devel. 10:2971–2980, 1996). For p300, antibody N15 (Santa Cruz Biotechnology) and AB-1 (Calbiochem) yielded similar results. Each IP was washed twice in NP-40 buffer (Wu, et al., Genes & Devel. 7:1126–1132, 1993), followed by 2 washes in RIPA buffer (50 mM Tris pH 7.4/150 mM NaCl/1% Triton X 100/0.1% SDSI 1% Na deoxycholate). Immunoprecipitations were run on 7.5–10% SDS-PAGE gels and transferred overnight onto Immuno-Blot PVDF membrane (BioRad). […]
These complexes persisted under stringent washing conditions (RIPA buffer washes, see Materials and Methods), and were not present using control antisera (rabbit IgG, lane 1). […] We next analyzed the p53-mSin3a interaction following post-translational stabilization of p53 mediated by DNA damaging agents. […]
We next analyzed the time-course of the p53-mSin3a interaction following exposure of cells to the DNA damaging agent adriamycin (doxorubicin). Both p53-mSin3a and p53 p300 complexes were monitored by IP-western analysis in a time course following adriamycin treatment of MCF-7 cells. As a control, p53 was immunoprecipitated using polyclonal antisera generated against full-length p53 (Santa Cruz Biotechnology). p53 levels were also assessed at each time point by western analyses (data not shown). […]

Va15 cells [2] = test: Northern analysis of Map4 mRNA after p53 induction by temperature shift; assay type: cell-based, murine; conditions: temperature shift to 32 degrees (wt p53), 100 nM TSA
Experimental: as §1
Total RNA was isolated from cells using CsC1 purification (Murphy et al., Genes & Devel. 10:2971–2980, 1996) or using Trizol, as per the manufacturer (Gibco/BRL). Northern analyses were performed as described (Murphy et al., Genes & Devel. 10:2971–2980, 1996). […] Autoradiographs were quantitated using NIH image software. […]

Va15 cells [3] = test: Flow cytometric analysis of cell cycle distribution; assay type: cell-based, murine; conditions: Va15 cells cultured at 32 degrees, TSA treatment, data not shown
Vm10 cells [4] = test: Flow cytometry of sub-G1 population; assay type: cell-based, murine; conditions: Vm10 at 32 degrees (wt p53), 100 nM TSA, data not shown
[5] = test system: H1299 human lung adenocarcinoma; test: Northern analysis of stathmin mRNA in p53-null cells; assay type: cell-based; conditions: H1299, null for p53
MCF-7 cells [6] = test: Northern analysis of stathmin mRNA after adriamycin treatment; assay type: cell-based, human
Experimental: as §1
(§2) Total RNA was isolated from cells using CsC1 purification (Murphy et al., Genes & Devel. 10:2971–2980, 1996) or using Trizol, as per the manufacturer (Gibco/BRL). Northern analyses were performed as described (Murphy et al., Genes & Devel. 10:2971–2980, 1996). Probes for Northerns were radio labeled using random primers (Prime-It-II, Stratagene) and α^32P dCTP (NEN). Autoradiographs were quantitated using NIH image software. The average values from three independent experiments were plotted onto bar graphs following normalization to GAPDH.
(§3) To extend these observations, the human tumor derived cell lines MCF7 (breast carcinoma)and A2780 (ovarian carcinoma) were analyzed following treatment with adriamycin to activate the endogenous, wild type p53 protein. Because of difficulties detecting human Map4 message, we analyzed the mRNA levels of stathmin (also called oncoprotein 18). We recently identified stathmin as a p53-repressed gene. A time course of treatment of MCF-7 cells with the DNA-damaging agent adriamycin (doxorubicin, DOX) results in approximately 30% reduction of stathmin RNA levels after 8 hours and 75% reduction after 24 hours. We chose to focus further on the 12 hour timepoint of adriamycin treatment, where 50% repression of stathmin was evident, in order to limit the toxicity sometimes associated with TSA (Yoshida et al., J Biol Chem 265:17174–17179, 1990). […] The results of three independent experiments indicate that the repression of stathmin expression evident after 12 hours of adriamycin treatment is completely abrogated by incubation with TSA. In contrast, neither the post-translational stabilization of p53 by adriamycin (DOX) nor the induction of the p53 response genes mdm2 and p21/waf1 were affected by TSA. […] We have performed identical experiments in A2780 cells (ovarian carcinoma, wt p53).

A2780 cells = test: as above; assay type: cell-based, human; conditions: A2780, co-incubation with TSA, data not shown
Experimental: as §1, §2, §3

Vm10 cells [7] = test: AMC caspase assay specific for caspase 3 (apoptosis); assay type: cell-based, murine
Experimental: Apoptosis was quantitated using the AMC caspase assay specific for caspase 3 (Pharmingen). Vm10 cells were grown at 39 degrees or temperature-shifted to 32 degrees for 24 hours in the presence or absence of 100 nM trichostatin A (TSA). Vm10 cells at 39 degrees were treated with staurosporine (Calbiochem) at 100 nM, or dilution vehicle (dimethyl sulfoxide), or tumor necrosis factor alpha plus cycloheximide (10 ng/mL TNFα, RD Systems, plus 40 ug/mL cycloheximide, Sigma). Cells were harvested, lysed, and lysate was monitored for the caspase-3-dependent hydrolysis of the fluorogenic substrate Ac-DEVD-AMC, according to protocols derived from the manufacturer (Pharmingen). As a control for non-specific proteolysis, lysates from 39 degrees and 32 degrees were also assayed in the presence of the caspase-3 inhibitor Ac-DEVD-CHO (N-acetyl-Asp-Glu-Val Asp-aldehyde, Pharmingen). Fluorescence emissions were quantified on a spectrofluorometer (VersaFluor Cuvette Fluorometer) with excitation wavelength of 360 nm. and emission of 460 nm. The data presented represent duplicate readings of the averaged values from two (TNFα and staurosporine) or three (temperature shift) independent experiments.
In order to assess the contribution of p53-mediated repression to apoptosis, we utilized the cell line Vm10. This murine cell line contains a stably-transfected p53 gene encoding a temperature-sensitive protein, as well as a constitutively expressed c-myc proto-oncogene; the characteristics of this line, and its ability to undergo apoptosis at 32 degrees, have been described (Chen et al., Mol Med 1:142–152, 1996). Temperature shift and wt p53 induction of these cells results in a significant increase in caspase-3 dependent AMC-DEVD hydrolysis, a read-out for apoptosis, as measured in a spectrofluorometric assay. […] Therefore, the ability of TSA to inhibit apoptosis is specific for p53-dependent apoptosis.

Va15 cells [8] = test: Western analysis of survivin in nocodazole-arrested cells; assay type: cell-based, murine; conditions: Va15 at 39 degrees, nocodazole alone, twenty-four hours
Experimental: Western analysis was performed essentially as described (Murphy et al., 1999). Briefly, subconfluent cells were harvested and lysed in RIPA buffer (50 mM Tris at pH 7.4, 150 mM NaCl, 1% Triton X-100, 0.1% SDS, and 1% sodium deoxycholate) supplemented with protease inhibitors (1 mM PMSF, […], […], and […]). Protein concentrations were determined using the Bio-Rad Dc Protein Assay (Bio-Rad). Equal amounts of protein (between 50 and 120 ugs) were run on 10% or 12% SDS-polyacrylamide gels and transferred overnight onto PVDF membrane (Bio-Rad). Western blots were incubated in antibody in 5% nonfat dry milk in phosphate-buffered saline supplemented with 0.2% Tween 20 (PBST). Blots were incubated with primary antibody at the following dilutions: p53 Ab-6 (Calbiochem) 1:1000, actin, AC-15 (Sigma) at 1:5000, p21/waf1 (Calbiochem) 1:1000 and survivin (Novus) 1:1000. Blots were washed with PBST and incubated in horseradish peroxidase-linked secondary antibody (Jackson ImmunoResearch Laboratories) and developed via the chemiluminescence protocol provided by the manufacturer (NEN).
Va15 cells (temperature-sensitive p53 which is wild type at 32 degrees) were grown at 39 degrees (mutant p53, asynchronous growth), and arrested in G2/M following twenty-four hours of nocodazole treatment. […]

CCCC[C@@H](C=O)NC(=O)[C@H](CC(C)C)NC(=O)[C@H](CC(C)C)NC(C)=O [ALLN] (Ac-Leu-Leu-[Nle]-aldehyde)
increase in p53 protein (MCF-7 cells [1]): approximately 4 fold
increase in the p53-mSin3a complex (MCF-7 cells [1]): undetectable increase in the p53-mSin3a complex

CC(/C=C/C(=O)NO)=C\[C@@H](C)C(=O)c1ccc(N(C)C)cc1 [TSA, trichostatin A]
Map4 RNA levels, % of starting levels (Va15 cells [2]): approximately 80%
cell cycle distribution (Va15 cells [3]): did not alter the cell cycle distribution
sub-G1 population (Vm10 cells [4]): reduces the sub-G1 population
effect on stathmin levels [5]: neither TSA nor adriamycin had any effect on stathmin levels
effect on stathmin levels, TSA alone (MCF-7 cells [6]; MCF-7, 100 nM TSA alone): undetectable effects on stathmin levels
effect on reduction of stathmin levels following adriamycin treatment (MCF-7 cells [6]; MCF-7, 100 nM TSA plus adriamycin 12 hours): completely abrogate the reduction of stathmin levels
effect on adriamycin-induced repression of stathmin (A2780 cells): abrogate completely this repression
inhibition of caspase-3-dependent AMC hydrolysis (Vm10 cells [7]; Vm10 at 32 degrees (wt p53), 100 nM TSA, 24 hours): greater than 4 fold
inhibition of apoptosis induced by staurosporine or tumor necrosis factor alpha (Vm10 cells [7]; Vm10 at 39 degrees (mutant p53), TSA treatment): unable to significantly inhibit apoptosis

COC(=O)Nc1nc2ccc(C(=O)c3cccs3)cc2[nH]1 [nocodazole]
survivin expression (Va15 cells [8]): increased survivin expression

N-acetyl-Asp-Glu-Val Asp-aldehyde [Ac-DEVD-CHO]
AMC cleavage in lysate with caspase-3 inhibitor added (Vm10 cells [7]; Vm10 lysate, addition of Ac-DEVD-CHO): negligible AMC cleavage
